This is an account of results in ChEMBL document CHEMBL1151289, “Biosynthesis of ganefromycin: results from blocked mutants and bioconversion experiments” (1998).

In brackets after ≈: the same amount, converted by molar mass.

For this test, the system named is Priestia megaterium. Put plainly: Antimicrobial activity against Bacillus megaterium. The test is classed as functional.
For the compound `C/C=C\C=C\[C@@H]1O[C@](O)([C@H](C)C(=O)NC/C=C/C=C(\C)C(O)C(C)C2CC(O)C(/C=C/C=C/C=C/C(=O)O)O2)C[C@H](O)C1(C)C` (stereo not given in full), the MIC (in general, the least concentration at which growth counts as inhibited) was > 100 mg/L.

`C/C=C\C=C\[C@@H]1O[C@](O)([C@H](CO[C@H]2C[C@H](OC)[C@H](O[C@@H]3C[C@@H](OC)[C@@H](O[C@H]4C[C@H](OC)[C@H](O)[C@H](C)O4)[C@H](C)O3)[C@H](C)O2)C(=O)NC/C=C/C=C(\C)C(OC)C(C)C(=O)CC(O)C/C=C/C=C/C=C/C(=O)O)C[C@H](O)C1(C)C` (stereo not given in full) showed an MIC of 3.1 mg/L (≈ 2.84 µM).

In the case of `C/C=C\C=C\[C@@H]1O[C@](O)([C@H](CO)C(=O)NC/C=C/C=C(\C)C(OC)C(C)C2CC(O)C(/C=C/C=C/C=C/C(=O)O)O2)[C@H](O)[C@H](O)C1(C)C` (stereo not given in full), the MIC turned out to be 50 mg/L (≈ 74 µM).

The compound `C/C=C\C=C\[C@@H]1O[C@](O)([C@H](CO[C@H]2C[C@H](OC)[C@H](O[C@@H]3C[C@@H](OC)[C@@H](O[C@H]4C[C@H](OC)[C@H](O)[C@H](C)O4)[C@H](C)O3)[C@H](C)O2)C(=O)NC/C=C/C=C(\C)C(OC)C(C)C2CC(O)C(/C=C/C=C/C=C/C(=O)O)O2)C[C@H](O)C1(C)C` (stereo not given in full) returned an MIC of 6.3 mg/L (≈ 5.77 µM).

On to `C/C=C\C=C\[C@@H]1O[C@](O)([C@H](C)C(=O)NC/C=C/C=C(\C)C(OC)C(C)C2CC(O)C(/C=C/C=C/C=C/C(=O)O)O2)[C@H](OC(=O)Cc2ccccc2)[C@H](O)C1(C)C` (stereo not given in full), for which the MIC was 12.5 mg/L (≈ 16.1 µM).

Consider `C/C=C\C=C\[C@@H]1O[C@](O)([C@H](CO[C@H]2C[C@H](O)[C@H](O)[C@H](C)O2)C(=O)NC/C=C/C=C(\C)C(OC)C(C)C2CC(O)C(/C=C/C=C/C=C/C(=O)O)O2)[C@H](O)[C@H](OC(=O)Cc2ccccc2)C1(C)C` (stereo not given in full), for which 50 mg/L (≈ 54.1 µM) was the least that counted as inhibitory (MIC).

`C/C=C\C=C\[C@@H]1O[C@](O)([C@H](CO[C@H]2C[C@H](O)[C@H](O)[C@H](C)O2)C(=O)NC/C=C/C=C(\C)C(OC)C(C)C2CC(O)C(/C=C/C=C/C=C/C(=O)O)O2)[C@H](O)[C@H](O)C1(C)C` (stereo not given in full) showed an MIC of 100 mg/L (≈ 124 µM).

Regarding `C/C=C\C=C\[C@@H]1O[C@](O)([C@@H](CO[C@H]2C[C@H](OC)[C@H](O[C@@H]3C[C@@H](OC)[C@@H](O[C@H]4C[C@H](OC)[C@H](O)[C@H](C)O4)[C@H](C)O3)[C@H](C)O2)C(=O)NC/C=C/C=C(\C)C(OC)C(C)C2CC(O)C(/C=C/C=C/C=C/C(=O)O)O2)C[C@H](O)C1(C)C` (stereo not given in full), the lowest concentration to inhibit growth (MIC) was 6.3 mg/L (≈ 5.77 µM).

With `C/C=C\C=C\[C@@H]1O[C@](O)([C@H](C)C(=O)NC/C=C/C=C(\C)C(O)C(C)C2CC(O)C(/C=C/C=C/C=C/C(=O)O)O2)[C@H](O)[C@H](O)C1(C)C` (stereo not given in full), it took 100 mg/L (≈ 155 µM) to inhibit growth (MIC).

As for `C/C=C\C=C\[C@@H]1O[C@](O)([C@H](CO[C@H]2C[C@H](OC)[C@H](O[C@@H]3C[C@@H](OC)[C@@H](O[C@H]4C[C@H](OC)[C@H](O)[C@H](C)O4)[C@H](C)O3)[C@H](C)O2)C(=O)NC/C=C/C=C(\C)C(OC)C(C)C2CC(O)C(/C=C/C=C/C=C/C(=O)O)O2)[C@H](OC(=O)Cc2ccccc2)[C@H](O)C1(C)C` (stereo not given in full), the lowest concentration to inhibit growth (MIC) was 0.4 mg/L (≈ 0.326 µM).

`C/C=C\C=C\[C@@H]1O[C@](O)([C@H](C)C(=O)NC/C=C/C=C(\C)C(OC)C(C)C2CC(O)C(/C=C/C=C/C=C/C(=O)O)O2)[C@H](O)[C@H](O)C1(C)C` (stereo not given in full): the MIC came out at 6.3 mg/L (≈ 9.55 µM).

Turning to `C/C=C\C=C\[C@@H]1O[C@](O)([C@@H](CO[C@@H]2O[C@@H](C)[C@@H](C)[C@@H](O[C@@H]3C[C@@H](OC)[C@@H](O)[C@H](C)O3)[C@H]2OC)C(=O)NC/C=C/C=C(\C)C(OC)C(C)C2CC(O)C(/C=C/C=C/C=C/C(=O)O)O2)C[C@H](O)C1(C)C` (stereo not given in full), inhibition of growth (MIC) required 12.6 mg/L (≈ 13.1 µM).

Compound `C/C=C\C=C\[C@@H]1O[C@](O)([C@H](CO[C@H]2C[C@H](O)[C@H](O)[C@H](C)O2)C(=O)NC/C=C/C=C(\C)C(OC)C(C)C2CC(O)C(/C=C/C=C/C=C/C(=O)O)O2)[C@H](OC(=O)Cc2ccccc2)[C@H](O)C1(C)C` (stereo not given in full) showed an MIC of 12.5 mg/L (≈ 13.5 µM).

As to `C/C=C\C=C\[C@@H]1O[C@](O)([C@@H](C)C(=O)NC/C=C/C=C(\C)C(O)C(C)C2CC(O)C(/C=C/C=C/C=C/C(=O)O)O2)C[C@H](O)C1(C)C` (stereo not given in full), the MIC is > 100 mg/L.

Consider `C/C=C\C=C\[C@@H]1O[C@](O)([C@H](CO[C@@H]2O[C@@H](C)[C@@H](C)[C@@H](O[C@@H]3C[C@@H](OC)[C@@H](O)[C@H](C)O3)[C@H]2OC)C(=O)NC/C=C/C=C(\C)C(OC)C(C)C2CC(O)C(/C=C/C=C/C=C/C(=O)O)O2)C[C@H](O)C1(C)C` (stereo not given in full), for which the MIC amounted to 12.6 mg/L (≈ 13.1 µM).
